{"source": "patent US20150110907A1", "about": "“METHOD OF TESTING THE ACTIVITY OF A POTENTIALLY ACTIVE SUBSTANCE TO INHIBIT THE ENZYMATIC ACTIVITY OF PHOSPHOLIPASE A2” (BASF Beauty Care Solutions France S.A.S., priority 2002, published 2015)", "target": "T1, PLA2 of type I originating from pig pancreas (Sus scrofa, UniProt P00592)", "T1 construct": "originates from pig pancreas (enzyme of type I); from tissue; host or cells: pig pancreas", "T1 sequence (P00592 23-146)": "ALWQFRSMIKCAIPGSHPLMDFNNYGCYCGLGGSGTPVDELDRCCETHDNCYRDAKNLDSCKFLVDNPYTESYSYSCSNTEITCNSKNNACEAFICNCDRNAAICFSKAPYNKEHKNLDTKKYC", "assay": "Acellular in vitro inhibition of PLA2 of type I, determination of free fatty acids", "assay_type": "biochemical", "conditions": "for Inhibition (%) Product diluted at 1/100 in demineralized water: initial solution diluted at 1/100 in demineralized water; for inhibition at 1000 µM: 1 mM; for Inhibition by substance tested pure (%): percentage inhibition with respect to the control", "description": "The study of the inhibition of phospholipase A2 (PLA2) is carried out in an acellular in vitro model which aims to be a reflection, near as possible, of the situation encountered in vivo.\nThe PLA2s of type I and of type II are used in vitro, in a model comprising: • 1) a substrate selected from the ester derivatives of arachidonic acid (such as β-arachidonoyl γ-palmitoyl L-α-phosphatidylcholine, which is a phospholipid containing arachidonic acid in SN2 position, site hydrolyzed by the phospholipase A2) which specifically is the fatty add involved in the synthesis of the mediators of the inflammation, • 2) a bivalent ion, playing the role of catalyst (such as calcium), • 3) an activator, which is indispensable for the activity of the enzyme, playing the role of solubilizer of the substrate in the reaction medium and enabling promoting the enzyme-substrate interaction (preferably sodium deoxycholate).\nThe enzyme in the presence of its cofactor is incubated for a determined period of time (e.g. about 15 minutes) with the inhibitor, and then a second incubation is carried out for (e.g. about 20 minutes) in the presence of the substrate which is preferably β-arachidonoyl γ-palmitoyl L-α-phosphatidylcholine and of the activator, which is preferably sodium deoxycholate.\nAt the end of this incubation, a determination of the non-esterified fatty acids is made on the reaction medium by an enzymatic technique that it is for example possible to follow by colorimetry at a defined wavelength.\nIn parallel, a control corresponding to the activity of the phospholipase A2 in the absence of inhibitor is carried out.\nThe PLA2 in aqueous solution (35 Units/ml), is placed in the presence of 3 mM β-arachidonoyl γ-palmitoyl L-α-phosphatidylcholine, which is a phospholipid containing, in SN2 position, site hydrolyzed by the phospholipase A2, arachidonic add, which is specifically an important fatty acid involved in the synthesis of the mediators of inflammation,\na) the enzyme in the presence of the cofactor (calcium) is incubated for 15 minutes at ambient temperature (20° C.) with the inhibitor;\nb) then, a second incubation of 20 minutes is made in the presence of β-arachidonoyl γ-palmitoyl L-α-phosphatidylcholine (3 mM) and sodium deoxycholate (1.6 mM).\nAt the end of this incubation, a determination of the free fatty acids, thus non-esterified free fatty acids, is made on the reaction medium by a classical enzymatic technique which is well-known to the person skilled in the art, that it is possible to follow by colorimetry, e.g. here at 550 nm,\nThe anti-PLA2 activity of increasing concentrations of the product selected was measured over three different batches of starting material. Each determination was made in triplicate, […]", "key": {"[1]": {"conditions": "non-diluted, initial concentrations: aristolochic acid 2 mM, p-bromophenacyl bromide 10 mM, nordihydroguaiaretic acid 5 mM"}, "[2]": {"conditions": "Table VII, read-out: percentage inhibition with respect to control"}, "[3]": {"conditions": "Table VII, 10 mM, read-out: percentage inhibition with respect to control"}}, "note": "Like-named read-outs stand apart in the source and are kept apart here.", "data": [{"molecule": "COc1cccc2c1cc([N+](=O)[O-])c1c(C(=O)O)cc3c(c12)OCO3", "note": "[Aristolochic acid, 8-methoxy-6-nitrophenanthro(3,4-d)-1,3-dioxole-5-carboxylic acid]", "values": [{"measurement": "Inhibition (%) Product diluted at 1/100 in demineralized water", "result": "10.00% ± 3.4"}, {"measurement": "Inhibition (%) Product diluted at 1/1000 in demineralized water", "setting": "initial solution diluted at 1/1000 in demineralized water", "result": "0.25% ± 0.5"}, {"measurement": "Inhibition (%) Non-diluted product", "setting": "[1]", "result": "96.2% ± 1.04"}]}, {"molecule": "CC(=O)Oc1ccccc1C(=O)O", "note": "[Aspirin]", "values": [{"measurement": "inhibition at 1000 µM", "setting": "[2]", "result": 3.5, "unit": "%"}, {"measurement": "inhibition at 10000 µM", "setting": "[3]", "result": 7, "unit": "%"}]}, {"molecule": "C[C@]12CCC(=O)C=C1CC[C@@H]1[C@@H]2C(=O)C[C@@]2(C)[C@H]1CC[C@]2(O)C(=O)CO", "note": "[Cortisone]", "values": [{"measurement": "percentage inhibition with respect to control", "setting": "Table VII, 10 mM", "result": 0, "unit": "%"}]}, {"molecule": "O=C(O)Cc1ccccc1Nc1c(Cl)cccc1Cl", "note": "[Diclofenac]", "values": [{"measurement": "inhibition at 1000 µM", "setting": "[2]", "result": 8, "unit": "%"}, {"measurement": "inhibition at 10000 µM", "setting": "[3]", "result": 29.8, "unit": "%"}]}, {"molecule": "C[C@]12CCC(=O)C=C1CC[C@@H]1[C@@H]2[C@@H](O)C[C@@]2(C)[C@H]1CC[C@]2(O)C(=O)CO", "note": "[Hydrocortisone]", "values": [{"measurement": "inhibition at 10000 µM", "setting": "[3]", "result": 4.5, "unit": "%"}]}, {"molecule": "CC(C)Cc1ccc(C(C)C(=O)O)cc1", "note": "(centres unmarked) [Ibuprofen]", "values": [{"measurement": "inhibition at 1000 µM", "setting": "[2]", "result": 6.9, "unit": "%"}, {"measurement": "inhibition at 10000 µM", "setting": "[3]", "result": 40.3, "unit": "%"}]}, {"molecule": "COc1ccc2c(c1)c(CC(=O)O)c(C)n2C(=O)c1ccc(Cl)cc1", "note": "[Indomethacin]", "values": [{"measurement": "inhibition at 1000 µM", "setting": "[2]", "result": 0, "unit": "%"}, {"measurement": "inhibition at 10000 µM", "setting": "[3]", "result": 25.7, "unit": "%"}]}, {"molecule": "C[C@]12C=CC(=O)C=C1CC[C@@H]1[C@@H]2[C@@H](O)C[C@@]2(C)[C@H]1CC[C@]2(O)C(=O)CO", "note": "[Prednisolone]", "values": [{"measurement": "inhibition at 10000 µM", "setting": "[3]", "result": 6.3, "unit": "%"}]}, {"molecule": "O=c1c(-c2ccc(O)cc2)coc2cc(O)cc(O)c12", "note": "[genistein]", "values": [{"measurement": "inhibition of the PLA2", "setting": "commercial 1% genistein solution", "result": 28.79, "unit": "%"}]}, {"molecule": "CC(Cc1ccc(O)c(O)c1)C(C)Cc1ccc(O)c(O)c1", "note": "(centres unmarked) [nordihydroguaiaretic acid]", "values": [{"measurement": "Inhibition (%) Product diluted at 1/100 in demineralized water", "result": "8.8% ± 0.8"}, {"measurement": "Inhibition (%) Non-diluted product", "setting": "[1]", "result": "97.3% ± 13.2"}]}, {"molecule": "O=C(CBr)c1ccc(Br)cc1", "note": "[p-bromophenacyl bromide]", "values": [{"measurement": "Inhibition (%) Product diluted at 1/100 in demineralized water", "result": "4.5% ± 2.3"}, {"measurement": "inhibition at 10000 µM", "setting": "non-diluted, initial concentrations: aristolochic acid 2 mM, p-bromophenacyl bromide 10 mM, nordihydroguaiaretic acid 5 mM, read-out: Inhibition (%) Non-diluted product", "result": 29.9, "unit": "%"}]}, {"molecule": "Magnesium gluconate", "values": [{"measurement": "Inhibition by substance diluted at 1% in demineralized water (%)", "result": 0, "unit": "%"}, {"measurement": "Inhibition by substance tested pure (%)", "result": 3.4, "unit": "%"}]}, {"molecule": "Zinc gluconate", "values": [{"measurement": "Inhibition by substance diluted at 1% in demineralized water (%)", "result": 12.6, "unit": "%"}, {"measurement": "Inhibition by substance tested pure (%)", "result": 50, "unit": "%"}]}]}
